Reference: US20120129817A1, “COMBINATION TREATMENT FOR DIABETES MELLITUS” (NYCOMED GMBH, priority 2006, published 2012)
Where a name gives a salt, the structure may show the parent alone.

Experiments:
db/db-mice [1] = experiment: HbA1c levels in db/db-mice after 4 weeks of once daily oral treatment (Micromat II Hemoglobin A1c Test); type: in vivo; conditions: female obese db/db-mice; Compound A 3 mg/kg orally, RIMONABANT Hydrochloride 10 mg/kg orally or combination of both, once daily for 4 weeks; vs vehicle; FIG. 1
Method: (§1) Aim of the study was to investigate the influence of a combination of RIMONABANT Hydrochloride and Compound A on HbA1c and glucose tolerance.
(§2) Female obese db/db-mice (BKS.Cg/BomTac-m+/+Lepr^db), supplied by Taconic Europe (Denmark) were used at the age of 10-11 weeks. Animals were kept under controlled conditions (22° C., 12 h light/12 h dark cycle) and received standard laboratory chow and water ad libitum. For each group a number of 15 animals were used.
(§3) Animals were treated with Compound A [3 mg/kg orally, suspended in methocel (hypromellose, 4% aequous solution)], RIMONABANT Hydrochloride [10 mg/kg orally, suspended in methocel (hypromellose, 4% aequous solution), Sequoia Research Products, Pangbourne, UK] or a combination of both once daily for 4 weeks. Vehicle treated animals served as control. HbA1c levels were analyzed using the Micromat II Hemoglobin A1c Test (Bio-Rad Laboratories GmbH, 80939 München, Germany). An intraperitoneal glucose tolerance test was performed in 24 h fasted animals. A glucose bolus (1 g/kg body weight) was administered intraperitoneally. Blood glucose was monitored for the following time points: t=−120 min, 0 min (before glucose administration), 30 min, 60 min, 90 min, 120 min (after glucose administration). Blood was taken by tail-tip-bleeding (5 μl) and was determined from hemolysate using an analyzing machine (Biosen S_line, EKF Diagnostic, Germany). […]

db/db-mice [2] = experiment: Intraperitoneal glucose tolerance test in 24 h fasted db/db-mice after 4 weeks of treatment; type: in vivo; conditions: female obese db/db-mice, glucose bolus 1 g/kg i.p., Compound A 3 mg/kg orally, RIMONABANT Hydrochloride 10 mg/kg orally or combination of both, once daily for 4 weeks, FIG. 2
Method: as §1, §2, §3

## Cc1c(C(=O)NN2CCCCC2)nn(-c2ccc(Cl)cc2Cl)c1-c1ccc(Cl)cc1 [RIMONABANT Hydrochloride, 5-(4-chlorophenyl)-1-(2,4-dichlorophenyl)-4-methyl-N-piperidin-1-yl-1H-pyrazole-3-carboxamide]
db/db-mice [1]
  effect on HbA1c: no effect
db/db-mice [2]
  effect on glucose tolerance: no effect

## CCOc1cc2c(cc1OC)C(c1ccc(OC)nc1OC)=N[C@@H]1CC[C@@H](O)C[C@H]21 [Compound A, (2R,4aR,10bR)-6-(2,6-Dimethoxy-pyridin-3-yl)-9-ethoxy-8-methoxy-1,2,3,4,4a,10b-hexahydrophenanthridin-2-ol]
db/db-mice [1]
  effect on HbA1c: no effect
db/db-mice [2]
  effect on glucose tolerance: no effect
